Experimental data reported in article PMC11988775, “Glycyl-tRNA Synthetase as a Target for Antiviral Drug Screening Against Influenza Virus” (International Journal of Molecular Sciences, 2025).
Like-named read-outs stand apart in the source and are kept apart here.

Columns and labels:
GlyRS [1] = molecular target: T1, GlyRS (Homo sapiens, UniProt P41250); test: Fluorescence-based thermal shift assay (TSA); assay type: binding; settings: shift between Tm of GlyRS with and without compound
T1 construct: made in house; host or cells: E. coli BL21(DE3)
T1 sequence (P41250 37-739): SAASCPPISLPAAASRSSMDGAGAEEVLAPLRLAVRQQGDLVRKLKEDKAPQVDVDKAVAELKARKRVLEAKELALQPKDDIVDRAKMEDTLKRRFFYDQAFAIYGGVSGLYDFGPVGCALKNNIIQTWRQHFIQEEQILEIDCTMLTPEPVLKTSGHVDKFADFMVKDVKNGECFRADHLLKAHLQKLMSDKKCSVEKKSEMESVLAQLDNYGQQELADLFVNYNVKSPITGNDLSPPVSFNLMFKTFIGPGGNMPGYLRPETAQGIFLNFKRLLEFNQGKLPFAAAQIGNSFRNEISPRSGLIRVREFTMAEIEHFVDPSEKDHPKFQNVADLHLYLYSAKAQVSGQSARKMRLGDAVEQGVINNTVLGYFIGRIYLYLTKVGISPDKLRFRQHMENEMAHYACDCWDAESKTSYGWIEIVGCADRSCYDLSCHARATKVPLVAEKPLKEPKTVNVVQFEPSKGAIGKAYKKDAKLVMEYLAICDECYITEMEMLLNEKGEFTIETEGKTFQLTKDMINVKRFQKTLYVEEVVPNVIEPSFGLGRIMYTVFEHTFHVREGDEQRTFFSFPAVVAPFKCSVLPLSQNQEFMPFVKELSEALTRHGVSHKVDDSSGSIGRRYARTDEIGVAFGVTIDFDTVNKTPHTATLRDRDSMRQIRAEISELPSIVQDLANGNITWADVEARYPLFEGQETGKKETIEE
Description: Thermal shift assays were conducted using a StepOnePlus 7 Flex Real-Time Cycler (Applied Biosystems, Waltham, MA, USA). The Protein Thermal Shift™ Kit dye from Thermo Fisher Scientific was employed to monitor the thermal stability of the protein by binding to its exposed hydrophobic regions. In each well of a 96-well Optical Reaction Plate (Applied Biosystems), a solution containing 14 μL of protein thermal shift buffer, 2 μL of diluted thermal shift dye (8×), 2 μL small molecule solution at 1 mM, and 2 μL of protein at 1 mg/mL was added. The 96-well polymerase chain reaction plates were then placed in the Life Technologies system and incubated at 25 °C for 10 min. Subsequently, the samples were gradually heated from 25 °C to 95 °C at a rate of 1 °C/min. During the thermal denaturation of the protein, the fluorescence signal of SYPRO orange at 490/530 nm excitation/emission wavelengths was recorded by the instrument at 30 s intervals. The fluorescence signal was continuously monitored and plotted against the temperature, with the midpoint of the protein unfolding transition defined as the melting temperature (Tm). To ensure accuracy, triplicate experiments were performed. The ΔTm represents the shift in Tm value between the GlyRS treated with compounds and the blank control.

GlyRS [2] = molecular target: T1, GlyRS; test: Bio-layer interferometry (BLI) binding assay; settings: for Kdis / Kon: immobilized GlyRS
Description: Binding experiments on the GlyRS proteins with various molecules were conducted using an Octet R8 system (ForteBio, Fremont, CA, USA). Purified His-tagged GlyRS proteins (500 μg/mL) were captured using Ni-NTA biosensors (ForteBio, Fremont, CA, USA), resulting in a saturation response of 4–5 nm after 300 s. Subsequently, the biosensors were immersed in diluted molecules (0.625–20 μM in assay buffer) for 120 s to measure the association signal, followed by transfer into Octet buffer to measure the dissociation signal for 100 s. Reference wells containing buffer instead of the tested compounds were included to correct for baseline shifts. A parallel set of Ni-NTA sensors immersed only in buffer served as negative reference controls to correct for nonspecific binding of the compounds to the biosensor surface. The signals were analyzed by a double reference subtraction protocol to deduce nonspecific and background signals and signal drifts caused by biosensor variability. All assays were performed by a standard protocol in 96-well black plates with a total volume of 200 μL/well at 30 °C. The generated data were analyzed using the Octet® Analysis Studio 12.2.2.26 for correction and curve fitting.

GlyRS [3] = molecular target: T1, GlyRS; test: Enzyme inhibition assay (ATP consumption assay); assay type: biochemical; settings: for IC50: ATP consumption assay, mean ± SD
Description: The ATP consumption assay was utilized to assess the enzymatic inhibitory activity of the compounds. The 30 μL reaction mixture consisted of 1 μM GlyRS, 25 μM ATP, 50 μM L-Glycine, 30 mM HEPES pH 7.5, 150 mM NaCl, 30 mM KCl, 40 mM MgCl2, and 0.1% bovine serum albumin (BSA), along with the corresponding concentrations of each compound. The reaction mixture was incubated at room temperature for 15 min. After incubation, 10 μL of the reaction reagent was transferred to a 384-well microplate, and the GlyRS enzyme activity was detected by adding 10 μL of the ATP Assay Kit (#S0026, Beyotime, Shanghai, China). Luminescence measurements were performed using a Synergy HTX multimode microplate Reader (BioTek Inc., Winooski, VT, USA). […]

in vitro = assay type: cell-based; settings: human
Description: We then evaluated the antiviral effects of Lycobetaine and Scutellarein. To determine the optimal concentration of the small molecules, we used the CCK-8 assay to evaluate cell viability and estimate the CC50 value of the two drugs in A549 cells. In this experiment, the cells were exposed to varying concentrations of Lycobetaine and Scutellarein, and the CCK-8 reagent was added 24 h after drug treatment.

[4] = system: A/PuertoRico/8/34 (H1N1) (PR8 virus); assay type: cell-based, Influenza A virus
GlyRS [5] = molecular target: T1, GlyRS; test: Limited proteolysis analysis (trypsin, SDS-PAGE); settings: trypsin at different concentrations, 1 h at 37 °C, versus unbound GlyRS
[6] = BLI, immobilized His-tagged GlyRS, mean ± SD, three repeats, read-out: KD
[7] = 1 μM GlyRS at 20 μM compounds, average of two independent experiments

| Structure (SMILES) | △Tm (GlyRS [1]) [°C] | Kdis (GlyRS [2]; BLI) | Kon (GlyRS [2]; BLI) | Kd (GlyRS [2]; [6]) [µM] | Relative Enzyme Activity (GlyRS [3]; [7]) [%] | Kd (GlyRS [2]) [µM] | Kd (GlyRS [2]; BLI, mean ± SD, three repeats (Table 2), read-out: KD) [µM] | IC50 (GlyRS [3]) [µM] | CC50 at 24 h (in vitro) [µM] | viral infection rate / viral titer [4] | protein conformation change of GlyRS (distribution of proteolyzed fragments) (GlyRS [5]) | Relative Enzyme Activity (GlyRS [3]; Figure 5K, bars A-J correspond to the compounds of panels A-J) [%] |
| --- | --- | --- | --- | --- | --- | --- | --- | --- | --- | --- | --- | --- |
| COC(=O)C1=C(C)NC(C)=C(C(=O)OCC(C)C)C1c1ccccc1[N+](=O)[O-] (centres unmarked) [Nisoldipine, reference compound] | −8.96 | 400 ± 94.49 (1/s) × 10^−2 | 86.16 ± 27.50 (1/MS) × 10^3 | 47.7 ± 7.18 | 67.3 | – | – | – | – | – | – | – |
| Cc1c(OCC(F)(F)F)ccnc1C[S+]([O-])c1nc2ccccc2[nH]1 (centres unmarked) [Lansoprazole, reference compound] | −5.03 | 9.25 ± 3.64 (1/s) × 10^−2 | 7.23 ± 2.14 (1/MS) × 10^3 | 12.5 ± 1.63 | 72.3 | – | – | – | – | – | – | – |
| COC[C@H]1C[C@@H](c2nc(-c3ccc4c(c3)COc3cc5c(ccc6nc([C@@H]7CC[C@H](C)N7C(=O)[C@@H](NC(=O)OC)C(C)C)[nH]c65)cc3-4)c[nH]2)N(C(=O)[C@H](NC(=O)OC)c2ccccc2)C1 [Velpatasvir, reference compound] | −5.4 | 18.46 ± 0.98 (1/s) × 10^−2 | 15.80 ± 0.71 (1/MS) × 10^3 | 11.7 ± 1.13 | 78.5 | – | – | – | – | – | – | – |
| CC(C)c1cc2c(c(O)c1O)[C@@]1(C(=O)O)CCCC(C)(C)[C@@H]1CC2 [Carnosic acid] | −5.9 | 1.12 ± 0.17 (1/s) × 10^−2 | 1.13 ± 0.26 (1/MS) × 10^3 | – | 75.4 | 14.5 ± 0.19 | – | – | – | – | – | – |
| O=c1cc(-c2ccc(O)cc2)oc2cc(O)c(O)c(O)c12 [Scutellarein] | −5.3 | 1.09 ± 0.11 (1/s) × 10^−2 | 3.96 ± 1.05 (1/MS) × 10^3 | – | 27.3 | – | 2.88 ± 0.83 | 2.22 ± 0.19 | 29.4 ± 0.76 | effectively reduced the viral infection rate | did not show significant differences compared to unbounded GlyRS | – |
| Oc1c(I)cc(I)c2cccnc12 [Iodoquinol, reference compound] | −11.97 | 2.23 ± 0.49 (1/s) × 10^−2 | 3.10 ± 0.51 (1/MS) × 10^3 | 7.14 ± 0.41 | – | – | – | – | – | – | – | 72.0 |
| C[C@@H]1C[C@H]2[C@@H]3CCC4=CC(=O)C=C[C@]4(C)[C@@]3(Cl)[C@@H](O)C[C@]2(C)[C@@]1(OC(=O)c1ccco1)C(=O)CCl [Mometasone furoate, reference compound] | −11.58 | – | 108.8 ± 67.42 (1/MS) × 10^3 | 1.82 ± 0.36 | 91.2 | – | – | – | – | – | – | – |
| CC(=O)N[C@@H](C)C(=O)O [N-Acetyl-L-alanine] | 5.96 | 560 ± 194 (1/s) × 10^−2 | 396.20 ± 85.48 (1/MS) × 10^3 | 24.9 ± 4.33 | 88.1 | – | – | – | – | – | – | – |
| Oc1cc2c3c(c1)c1cc4c(cc1c[n+]3CC2)OCO4 [Lycobetaine] | −13.01 | 39.73 ± 11.18 (1/s) × 10^−2 | – | 43.5 ± 16.4 | 8.0 | – | – | 0.11 ± 0.05 | 16 ± 0.58 | effectively reduced the viral infection rate | alters the protein conformation of GlyRS | – |
| Cc1ccc(S(=O)(=O)NCl)cc1 [Chloramine-T] | −5.13 | 78.19 ± 17.95 (1/s) × 10^−2 | 52.28 ± 13.31 (1/MS) × 10^3 | – | 86.9 | 15.1 ± 1.8 | – | – | – | – | – | – |
